Bridge positions count the residues as written; N and C are the ends. Square brackets hold non-standard residues; d marks the D form. Peptide text beside a SMILES is read from it. * marks the point of attachment. Phe(2-CONH2) = NC(=O)c1ccccc1C[C@H](N)C(=O)O; Orn(iPr) = CC(C)NCCC[C@H](N)C(=O)O; Oxazole2carbonyl = O=C(c1ncco1)*; 3Pal = N[C@@H](Cc1cccnc1)C(=O)O
Experiment: Degradation rates of 1 mg/mL solutions of AXN-001 at different pH and temperatures over 30 days
Type: physicochemical
Experimental: To achieve the higher pH values, an isotonic 10 mM phosphate buffer was used.
The degradation rates were then determined for 1 mg/mL solutions of AXN-001 at pH 3.5, 4.5, 5.5, 6.5, and 7.5, when kept at 2-8°C, 25°C, 40°C, and 60°C for 30 days. Table 1: Degradation rates
Degradation rates at 2-8° C were not determined ("n.d.") because degradation could not be measured at thirty days (with the exception of pH 7.5).

Degradation Rates (pH 3.5, 25°C): 0.058 %/day
Degradation Rates (pH 3.5, 40°C): 0.20 %/day
Degradation Rates (pH 3.5, 60°C): 1.50 %/day
Degradation Rates (pH 4.5, 25°C): 0.019 %/day
Degradation Rates (pH 4.5, 40°C): 0.12 %/day
Degradation Rates (pH 4.5, 60°C): 1.19 %/day
Degradation Rates (pH 5.5, 25°C): 0.007 %/day
Degradation Rates (pH 5.5, 40°C): 0.23 %/day
Degradation Rates (pH 5.5, 60°C): 3.18 %/day
Degradation Rates (pH 6.5, 25°C): 0.039 %/day
Degradation Rates (pH 6.5, 40°C): 0.54 %/day
Degradation Rates (pH 6.5, 60°C): 3.47 %/day
Degradation Rates (pH 7.5, 2-8°C): 0.02 %/day
Degradation Rates (pH 7.5, 25°C): 0.605 %/day
Degradation Rates (pH 7.5, 40°C): 1.62 %/day
Degradation Rates (pH 7.5, 60°C): 5.55 %/day
Structure (SMILES): CC(C)NCCC[C@@H]1NC(=O)[C@@H](NC(=O)[C@H](Cc2ccccc2C(N)=O)NC(=O)[C@H](NC(=O)c2ncco2)C(C)C)CSSC[C@@H](C(=O)N[C@@H](Cc2cccnc2)C(N)=O)NC(=O)[C@H](Cc2ccccc2)NC(=O)[C@@H]2CCCN2C(=O)CNC(=O)[C@H](C(C)C)NC(=O)[C@H](CC(=O)O)NC1=O [AXN-001, Oxazole-2-carbonyl-D-Val-Phe(2-Cbm)-c(Cys-Orn (iPr)-Asp-Val-Gly-Pro-Phe-Cys)-3Pal-NH2] (Oxazole2carbonyl-[dV][Phe(2-CONH2)]C[Orn(iPr)]DVGPFC[3Pal]-NH2; disulfide 3-10)
